From US7504415B2, “Therapeutic agent for glomerular disease” (Kowa Co., Ltd., priority 2001, dated 2009)

Key:
Human mensagial cells = assay: Mensagial matrix (PIP) production inhibition test, TGF-β1-stimulated, ELISA; format: cell-based; conditions: TGF-β1 10 ng/mL stimulation, 72 hours culture, PIP by ELISA, read-out: PIP production inhibitory activity (IC50)
Protocol: (1) Culture and Storage of Human Mensagial Cells
Human mensagial cells (normal human mensagial cells, CryoNHMC, product of Sanko Junyaku Co., Ltd.) were cultured in MsGM medium (15 mL/flask) by use of two 75-cm^2 flasks (430720, CORNING). The medium was replaced with fresh medium every 2 to 3 days. Subsequently, the culture was scaled up to a 225-cm^2 flask (3000, COSTER) level, and three vials of passage 5 and 27 vials of passage 6 were prepared at a cell count of 5×10^6 cells/Cell Banker 1 mL/vial (430659, CORNING). The thus-cultured cell samples were stored in a container cooled by liquid nitrogen.
(2) Determination of Mansagial Matrix Production Inhibitory Activity
Cryopreserved human mensagial cells of passage 6 were revived and sown in a medium placed in a 75-cm^2 flask. The medium was replaced the next day, and incubation was continued for three more days. The thus-cultured cells were treated with 0.25% trypsin-0.02% EDTA. […] After completion of culturing, the PIP level of each culture liquid was determined through ELISA by use of a PIP determination kit (product of TAKARA). The percent inhibition (%) was calculated in accordance with the following equation, and the PIP production inhibitory activity (IC50 value) was derived from the percent inhibition. […]

[1] = tested on: renal failure model (5/6 nephrectomized) rats; assay: Renal failure model (5/6 nephrectomized) rats; format: in vivo, rat; conditions: 15 mg/kg perorally once a day
Excerpt: Male Wistar rats (10 weeks old, 300 to 350 g, purchased from Japan SLC Co., Ltd.) were anesthetized with pentobarbital, and the right kidney of each rat was extirpated. Subsequently, the left kidney was exposed. Under a stereoscopic microscope, two of the left renal artery branches (generally, one renal artery is separated into three branches) were ligated and one central branch was left intact, to thereby provide a 5/6 nephrectomized rat. When a renal artery branch is ligated, a portion controlled by the branch falls into ischemia, and such ischemic renal portion can be visually detected. The thus-produced renal failure models were evaluated in terms of increase in blood urea nitrogen level (BUN) one day after the ligation.
The rats were divided into three groups such that the BUN level (one day after ligation) of the groups were equalized, and compound A was administered to each rat of the groups. The groups consisted of a normal rat group (N=5); a 5/6 nephphrectomized and drug-untreated group (control: N=8); and a 5/6 nephrectomized and compound-A-administered group (15 mg/kg: N=8). […] The (total protein)/creatinine ratio (UP/Ucr) in a urine sample and the BUN level were determined on days 7, 14, 21, 28, and 35 after ligation.

[2] = tested on: progressive anti-Thy-1 nephritic rat; assay: Pharmacological test using progressive anti-Thy-1 nephritic rats; format: in vivo; conditions: 20 mg/kg perorally once/day, 10 weeks
Protocol: (1) Wistar female rats (5 weeks old, purchased from Japan SLC Co., Ltd.) were quarantined and acclimatized for four days, and used for the test. First, the right kidney of each rat was removed through flank incision under anesthesia with pentobarbital. Two weeks after removal of the right kidney, an anti-Thy-1 antibody (anti-mesangial-cell antibody/monoclonal antibody 1-22-3; purchased from Panafarm Laboratories Co., Ltd.) was intravenously administered (500 μg/rat) into the tail vein, whereby progressive anti-Thy-1 nephritis was induced. Immediately thereafter, compound A which had been suspended in an aqueous 0.5% sodium carboxymethyl cellulose solution was perorally administered via a peroral probe to each rat in a forced and continuous manner (20 mg/kg body weight, once/day, 10 weeks). After completion of 10 weeks' administration of compound A, urine was taken from each rat for 18 hours in a metabolic cage (Sugiyama Gen Co., Ltd.), and the total amount of protein excreted into the urine was determined.
(2) After completion of the urine analysis, the left kidney was extirpated from each rat, fixed in formalin, and embedded with paraffin. A thin slice obtained from the thus-treated kidney was stained with hematoxylin and eosin (HE), and observed under a stereoscopic microscope. […] The ratio was evaluated on the basis of the following classification. […]

Slc: Wistar rats = assay: Acute toxicity test; format: in vivo, rat
Protocol: Slc: Wistar rats (5 male rats and 5 female rats, 6 weeks old, purchased from Japan SLC Co., Ltd.) were subjected to fasting overnight. After fasting, compound A which had been suspended in an aqueous 0.5% sodium carboxymethyl cellulose solution was perorally administered in a forced manner to each male rat (500 mg/kg) and each female rat (250 mg/kg).

monocalcium (+)-bis[(3R, 5S, 6E)-7-[2-cyclopropyl-4-(4-fluorophenyl)-3-quinolyl]-3,5-dihydroxy-6-heptenoate] [compound A]
IC50 (Human mensagial cells): 22.4 µM
blood urea nitrogen (BUN) level ([1]; after week 4, FIG. 4): significant decrease
(total protein)/creatinine ratio (UP/Ucr) in urine ([1]; weeks 7 and 8 after administration, vs drug-untreated group, FIG. 3): significantly decreases
total amount of protein excreted into urine (18 hours) ([2]; FIG. 1): significantly lowered
lesions occurring in the malpighian tubes and stroma (tubulointerstitial damage score, HE staining) ([2]; FIG. 2): significantly inhibited
death during observation period of 14 days (Slc: Wistar rats; female rats, 250 mg/kg single peroral dose after overnight fasting): no case of death
death during observation period of 14 days (Slc: Wistar rats; male rats, 500 mg/kg single peroral dose after overnight fasting): no case of death
